In patent publication US8076485B2, “Methylphenidate derivatives and uses of them” (priority 2005, dated 2011):

Columns and labels:
[1] = system: CD3/CD28 stimulated TRiPS cells; assay: Custom AntibodyArray of cell extracts of CD3/CD28 stimulated TRiPS cells; assay type: cell-based, human; conditions: 15 μg/ml, 30 minutes; antibody array, phospho-specific detection
Experimental: Day 18 TRiPS cells, 1×10^6, were incubated for 30 minutes at 37° C., either with nothing added (“Nil”), with 1 μl CD3/CD28 Dynabeads (Dynal, Oslo, Norway) (“CD3/CD28 beads”) per 100,000 cells, or with CD3/CD28 beads and 15 μg/ml of the compound of formula II (Cpd II). After the incubation, the cells were lysed in Cell-Lytic Mammalian Cell Extraction Reagent (Sigma). After centrifugation to pellet cellular debris, the supernatants (cell extracts) were obtained.
The cell extracts (supernatants) were then analyzed using a Custom AntibodyArray™ manufactured by Hypromatrix Inc., Worcester, Mass., following the manufacturer's instructions. The Custom AntibodyArray™ is a nylon membrane blotted with antibodies to the proteins listed below. Briefly, the cell extracts were incubated with duplicate Custom AntibodyArray™, s for 2 hours at room temperature with slow shaking, followed by three washes with Tris buffer (150 mM NaCl, 25 mM Tris, 0.05% Tween-20, pH 7.5). HRP-labeled antibodies specific for phosphorylated-tyrosine, phosphorylated-serine and phosphorylated-threonine in Tris buffer were added, and the arrays incubated for 2 hours. After three more washes with Tris buffer, a peroxidase-reactive luminescent substrate was added. The arrays were visualized by exposure to X-ray film. Densitometry of the X-ray films was measured by scanning and computer analysis.

Ras = Ras activation pulldown assay in TRiPS cells; assay type: cell-based, human; conditions: 15 μg/ml
Experimental: (§1) Day 10 TRiPS cells, 1×10^6, were incubated with 15 μg/ml of the compound of formula II (Cpd II) for 1 hour at 37° C. Then, the cells were incubated with CD3/CD28 beads (1 μl per 100,000 cells) (obtained from Dynal) for 10 minutes at 37° C. The cells were then lysed with a mild buffer (supplied with Pierce EZ-Detect activation kit described below) to produce cell extracts. Protein concentrations of the resulting extracts were determined by bicinchoninic acid (BCA) assay (Pierce) and placed on ice for immediate use.
(§2) Pulldown assays were performed using Pierce EZ-Detect activation kits according to the manufacturer's instructions utilizing GST-RAF-1-RBD and GST-RalGDS-RBD for Ras and RAP-1 respectively. Briefly, 400 μg total protein from each extract was combined with recombinant protein and glutathione resin and incubated at 4° C. for one hour with gentle shaking The resin was then washed to remove unbound protein and the activated Ras and RAP-1 proteins were removed by boiling in the presence of SDS-PAGE loading dye containing reducing agent. Ras and RAP-1 western blots were performed to visualize the proteins using antibodies supplied with the kit. Densitometry of the X-ray films was done by scanning and computer analysis.

HUVECs = assay: HUVEC proliferation (Promega cell titer assay); assay type: cell-based, human; conditions: 48 hours; for Mean OD at 530 nm: HUVECs
Experimental: Passage 4 HUVECs, lot number 9713, in either EGM-2 plus 50 ng/ml vascular endothelial growth factor (VEGF) (obtained from Sigma) or in EGM-2 complete medium (containing 2% FCS, hydrocortisone, human fibroblast growth factor B, VEGF, recombinant insulin-like growth factor-1, ascorbate, human […], gentamycin and heparin) (obtained from Cambrex) were put into the wells of a 96-well tissue culture plate at 5,000 cells/well. The following additives were added to the cells: water (vehicle control); 5 μg/ml of the compound of formula II (Cpd II); 15 μg/ml Cpd II; or 30 μg/ml of Cpd II. After 48 hours of culture at 37° C. and 5% CO2, cell proliferation was evaluated by the Promega cell titer assay as described in Example 1, except that the plates were incubated for only 2 hours after addition of the Promega cell titer reagent.

TNFα = TNFα release from LPS-stimulated THP-1 monocytes (ELISA); assay type: cell-based; conditions: THP-1, LPS 200 ng/ml; Cpd II 15 μg/ml, Dex 10 μM
Experimental: THP-1 is a monocyte cell line obtained from American Type Culture Collection (ATCC) (catalog no. TIB-202). […] After 1 hour, lipopolysaccharide (LPS) (obtained from Sigma) was added to the cultures to give a final concentration of 200 ng/ml, and the cells were then incubated for an additional 4 hours or for an additional 24 hours. After the incubation, the cells were centrifuged, and the supernatants were collected. The concentrations of IL-8 and TNFα in the supernatants were determined by ELISA.
The TNFα ELISA was performed as described in Example 2.

c-Jun = c-Jun in VEGF-treated HUVECs (TransAM AP-1 assay); assay type: cell-based, human; conditions: Cpd II at 15 μg/ml and 5 μg/ml
Experimental: The amount of c-Jun was determined using a TransAM™ AP-1 Family Transcription Factor Assay Kit and a Nuclear Extract Kit from Active Motif North America, Carlsbad, Calif., according to manufacturer's instructions. Briefly, a nuclear extract of the cells was prepared using the Nuclear Extract Kit. Then, the nuclear extract was added to the wells of a 96-well plate in which oligonucleotide containing a TPA-responsive element (TRE) was immobilized. Activator protein-1 (AP-1) dimers contained in the nuclear extract were bound to this oligonucleotide and were detected using an antibody specific for c-Jun. A secondary antibody conjugated to horseradish peroxidase (HRP) was next added to provide a colorimetric readout that was quantified by spectrophotometry (measurement at 450 nm).

RAP-1 = RAP-1 activation pulldown assay in TRiPS cells; assay type: cell-based, human; conditions: 15 μg/ml
Experimental: as §1, §2

With `COC(=O)C(c1ccc(-c2ccccc2)cc1)C1CCCCN1` (stereo not shown) [Cpd II] the “Effect of Cpd II on the protein in CD3/CD28 stimulated TRiPS cells: 14-3-3” value [1] was “Slightly decreased the level”, the “Effect of Cpd II on the protein in CD3/CD28 stimulated TRiPS cells: IL-2” value [1] was “Decreased level back to basal levels (Nil control)” and the “Effect of Cpd II on the protein in CD3/CD28 stimulated TRiPS cells: IL-4” value [1] was “Decreased level back to basal levels (Nil control)”. For the same compound, the “Effect of Cpd II on the protein in CD3/CD28 stimulated TRiPS cells: IL-7y” value [1] was “Decreased level back to basal levels (Nil control)”, the “Effect of Cpd II on the protein in CD3/CD28 stimulated TRiPS cells: IkB-r” value [1] was “Decreased level back to basal levels (Nil control)” and the “Effect of Cpd II on the protein in CD3/CD28 stimulated TRiPS cells: IkB-α” value [1] was “Slightly decreased the level”. The “Effect of Cpd II on the protein in CD3/CD28 stimulated TRiPS cells: IkB-β” value [1] was “Decreased level back to basal levels (Nil control)”, the “Effect of Cpd II on the protein in CD3/CD28 stimulated TRiPS cells: IkB-ε” value [1] was “Slightly decreased the level” and the “Effect of Cpd II on the protein in CD3/CD28 stimulated TRiPS cells: JAK2” value [1] was “Activated”. The “Effect of Cpd II on the protein in CD3/CD28 stimulated TRiPS cells: JNK1” value [1] was “Decreased level back to basal levels (Nil control)”, the “Effect of Cpd II on the protein in CD3/CD28 stimulated TRiPS cells: JNK2” value [1] was “Decreased level back to basal levels (Nil control)” and the “Effect of Cpd II on the protein in CD3/CD28 stimulated TRiPS cells: JNK3” value [1] was “Decreased level back to basal levels (Nil control)”. The “Effect of Cpd II on the protein in CD3/CD28 stimulated TRiPS cells: MEK1” value [1] was “Decreased level to below basal levels (Nil control)”, the “Effect of Cpd II on the protein in CD3/CD28 stimulated TRiPS cells: MEKK1” value [1] was “Decreased level back to basal levels (Nil control)” and the “Effect of Cpd II on the protein in CD3/CD28 stimulated TRiPS cells: PI3kinaseP85” value [1] was “Activated”. For the same compound, the “Effect of Cpd II on the protein in CD3/CD28 stimulated TRiPS cells: RAP1” value [1] was “Activated”, the “Effect of Cpd II on the protein in CD3/CD28 stimulated TRiPS cells: RAP2” value [1] was “Activated” and the “Effect of Cpd II on the protein in CD3/CD28 stimulated TRiPS cells: STAT4” value [1] was “Activated”. For the same compound, the “Effect of Cpd II on the protein in CD3/CD28 stimulated TRiPS cells: STAT5b” value [1] was “Activated”, the “Effect of Cpd II on the protein in CD3/CD28 stimulated TRiPS cells: STAT6” value [1] was “Slightly decreased the level” and the “inhibition of Ras protein” value (Ras) was “very strong inhibition of Ras protein”. For the same compound, the “number of cells detected in the wells” value (HUVECs; HUVECs, 5, 15, 30 μg/ml) was “reduced the number of cells detected in the wells in a dose-dependent manner”, the “Mean OD at 530 nm” value (HUVECs; EGM-2 + VEGF, 5 μg/ml, vehicle 0.224 ± 0.011) was 0.189 ± 0.014 and the “Mean OD at 530 nm” value (HUVECs; EGM-2 + VEGF, 15 μg/ml, vehicle 0.224 ± 0.011) was 0.132 ± 0.022. The “Mean OD at 530 nm” value (HUVECs; EGM-2 + VEGF, 30 μg/ml, vehicle 0.224 ± 0.011) was 0.046 ± 0.012, the “Mean OD at 530 nm” value (HUVECs; EGM-2 + growth factors, 5 μg/ml, vehicle 0.299 ± 0.011) was 0.271 ± 0.022 and the “Mean OD at 530 nm” value (HUVECs; EGM-2 + growth factors, 15 μg/ml, vehicle 0.299 ± 0.011) was 0.239 ± 0.019. The “Mean OD at 530 nm” value (HUVECs; EGM-2 + growth factors, 30 μg/ml, vehicle 0.299 ± 0.011) was 0.066 ± 0.003, the “release of TNFα from the LPS-stimulated monocytes” value (TNFα) was “significantly inhibited the release of TNFα” and the “increase in the amount of c-Jun” value (c-Jun) was “completely eliminated the increase in the amount of c-Jun”. The “inhibition of RAP-1” value (RAP-1) was “appeared to inhibit RAP-1”.
